The nature of the data set: Equilibrium solubility of crystal forms by UV-Vis spectrophotometry (279 nm). The class given is physicochemical. The source says: The specific operation was as follows: take samples of five new and original crystalline forms after reaching the dissolution equilibrium, filter them with 0.22 μm filter membrane, take appropriate amount of filtrate, according to the UV-Vis spectrophotometric method (Chinese Pharmacopoeia 2020 edition), determine the absorbance value at the wavelength of 279 nm, and substitute them into the standard curve to obtain the solubility of five new and original crystalline forms, as shown in Table 1.

The mark [1] stands for this setting: pH = 7.0 aqueous solution (deionized water).

We go through 6 compounds from patent US20250163018A1, “KEY AMINO ACID BASED ON PROTEIN-DRUG INTERACTIONS INDUCED NEW CRYSTAL FORMS OF TRELAGLIPTIN AND PREPARATION METHODS THEREOF” (GUANGDONG UNIVERSITY OF TECHNOLOGY, priority 2024, published 2025).

In brackets after ≈: the same amount, converted by molar mass. Read-outs that look alike come from different tables or passages of the source.

A word on the solubility: it is how much of the substance goes into solution per volume. `Cn1c(=O)cc(N2CCC[C@@H](N)C2)n(Cc2cc(F)ccc2C#N)c1=O` [TRE-I, 2-[[6-[(3R)-3-aminopiperidin-1-yl]-3-methyl-2,4-dioxopyrimidin-1-yl]methyl]-4-fluorobenzonitrile]: the solubility is, setting by setting: (PBS, pH 6.8, aqueous buffer, thermodynamic from solid, pH = 6.8 PBS, read-out: solubility) 34.2 mg/mL (≈ 95.8 mM); (PBS, pH 7.4, aqueous buffer, thermodynamic from solid, pH = 7.4 PBS, read-out: solubility) 28.6 mg/mL (≈ 80 mM); (deionized water, pH 7, water, thermodynamic from solid, pH = 7.0 aqueous solution (deionized water), read-out: solubility) 13.2 mg/mL (≈ 36.9 mM); (hydrochloric acid solution, pH 1.2, simulated gastric fluid, thermodynamic from solid, pH = 1.2 hydrochloric acid, read-out: solubility) 54 mg/mL (≈ 151 mM).

For the compound `Cn1c(=O)cc(N2CCC[C@@H](N)C2)n(Cc2cc(F)ccc2C#N)c1=O` [TRE-II, 2-[[6-[(3R)-3-aminopiperidin-1-yl]-3-methyl-2,4-dioxopyrimidin-1-yl]methyl]-4-fluorobenzonitrile], the solubility runs as follows: (pH = 1.2 hydrochloric acid) 45.91 mg/mL (≈ 128 mM); (pH = 6.8 PBS) 40.01 mg/mL (≈ 112 mM); under setting [1], 15.98 mg/mL (≈ 44.7 mM); (pH = 7.4 PBS) 37.32 mg/mL (≈ 104 mM).

Consider `Cn1c(=O)cc(N2CCC[C@@H](N)C2)n(Cc2cc(F)ccc2C#N)c1=O` [TRE-IV, 2-[[6-[(3R)-3-aminopiperidin-1-yl]-3-methyl-2,4-dioxopyrimidin-1-yl]methyl]-4-fluorobenzonitrile], for which the solubility runs as follows: (pH = 1.2 hydrochloric acid) 73.49 mg/mL (≈ 206 mM); (pH = 6.8 PBS) 35.05 mg/mL (≈ 98.1 mM); under setting [1], 19.56 mg/mL (≈ 54.7 mM); (pH = 7.4 PBS) 35.94 mg/mL (≈ 101 mM).

Consider `Cn1c(=O)cc(N2CCC[C@@H](N)C2)n(Cc2cc(F)ccc2C#N)c1=O` [TRE-III, 2-[[6-[(3R)-3-aminopiperidin-1-yl]-3-methyl-2,4-dioxopyrimidin-1-yl]methyl]-4-fluorobenzonitrile], for which the solubility is on record as 39.76 mg/mL (≈ 111 mM) (pH = 1.2 hydrochloric acid), 35.90 mg/mL (≈ 100 mM) (pH = 6.8 PBS), 14.93 mg/mL (≈ 41.8 mM) under setting [1] and 28.26 mg/mL (≈ 79.1 mM) (pH = 7.4 PBS).

`Cn1c(=O)cc(N2CCC[C@@H](N)C2)n(Cc2cc(F)ccc2C#N)c1=O` [TRE-V, 2-[[6-[(3R)-3-aminopiperidin-1-yl]-3-methyl-2,4-dioxopyrimidin-1-yl]methyl]-4-fluorobenzonitrile]: the solubility came to 76.01 mg/mL (≈ 213 mM) (pH = 1.2 hydrochloric acid), 36.12 mg/mL (≈ 101 mM) (pH = 6.8 PBS), 12.64 mg/mL (≈ 35.4 mM) under setting [1] and 37.51 mg/mL (≈ 105 mM) (pH = 7.4 PBS).

`Cn1c(=O)cc(N2CCC[C@@H](N)C2)n(Cc2cc(F)ccc2C#N)c1=O` [original crystal form, 2-[[6-[(3R)-3-aminopiperidin-1-yl]-3-methyl-2,4-dioxopyrimidin-1-yl]methyl]-4-fluorobenzonitrile, reference compound] gave a solubility (pH = 6.8 PBS) of 15.46 mg/mL (≈ 43.3 mM), a solubility under setting [1] of 3.40 mg/mL (≈ 9.51 mM) and a solubility (pH = 7.4 PBS) of 12.94 mg/mL (≈ 36.2 mM).
